Test results published in article PMC9501014, “Amaryllidaceae-Type Alkaloids from Pancratium maritimum: Apoptosis-Inducing Effect and Cell Cycle Arrest on Triple-Negative Breast Cancer Cells” (Molecules, 2022).

Assays:
MCF-7 cells = assay: Sulforhodamine B antiproliferative assay, MCF-7; type: cell-based, human
Protocol: The antiproliferative effect of the isolated compounds (1–11) was investigated by the sulforhodamine B assay against human triple-negative breast cancer cell lines (MDA-MB-468 and MDA-MB-231) and breast ductal carcinoma cells (MCF-7) and the non-tumorigenic fibroblast (HFF-1) and breast cell lines (MCF12A). The IC50 values were determined after 48 h of treatment (Table 1).
Human breast adenocarcinoma MDA-MB-231, MDA-MB-468, and MCF-7 cell lines and non-tumorigenic foreskin fibroblast (HFF-1) and breast (MCF12A) cell lines were purchased from American Type Culture Collection (ATCC, Rockville, MD, USA). All cancer cell lines, except MCF12A, were routinely cultured in RPMI-1640 medium with glutamine from Corning (VWR, Carnaxide, Portugal) supplemented with 10% fetal bovine serum (FBS) from Biowest (Labclinics, Barcelona, Spain). MCF12A cells were cultured in a 1:1 mixture of Dulbecco’s modified Eagle’s medium and Ham’s F12 medium, 20 ng/mL human epidermal growth factor, 100 ng/mL cholera toxin, 0.01 mg/mL bovine insulin, and 500 ng/mL hydrocortisone and supplemented with 10% FBS. All cells were maintained in a humidified incubator at 37 °C with 5% CO2. All cells were routinely tested for mycoplasma contamination using the MycoAlertTM PLUS detection kit (Lonza, Basel, Switzerland).
(§1) Human cell lines were seeded in 96-well plates at a density of 5.0 × 10^3 (MDA-MB-231, MCF-7, HFF-1, and MCF12A) and 7.5 × 10^3 (MDA-MB-468) cells/well and allowed to adhere for 24 h. Cells were treated with serial dilutions of compounds (ranging from 0.1 to 40 μM) for an additional 48 h. Effect on cell proliferation was measured by sulforhodamine B assay, as described in [33], and the half-maximal inhibitory concentration (IC50) was then determined for each cell line using the GraphPad Prism software version 7.0 (La Jolla, CA, USA).

[1] = system: Bax, Bcl-xL, p21, p53 protein expression in MDA-MB-231 cells; assay: Western blot analysis of protein expression levels; type: cell-based, human; conditions: 16 µM, 48 h
Protocol: Once compound 7 induced cancer cell death by apoptosis, we next explored the molecular pathways involved in its apoptotic effect. For that, some apoptotic-related proteins were checked in MDA-MB-231 cells treated with 16 µM of compound 7 for 48 h (Figure 2E,F).
MDA-MB-231 cells were seeded in 6-well plates at a density of 1.5 × 10^5 cells/well for 24 h, followed by treatment with 16 µM of compound 7. Protein extracts were quantified using the Bradford reagent (Sigma-Aldrich). Proteins were run in SDS-PAGE and transferred to a Whatman nitrocellulose membrane from Protan (VWR, Carnaxide, Portugal). After blocking, proteins were identified using specific primary antibodies: rabbit polyclonal anti-p21 (Santa Cruz Biotechnology, Dallas, […], USA), rabbit polyclonal anti-Bax, and rabbit monoclonal anti-Bcl-xL (Invitrogen, Waltham, MA, USA), followed by the respective anti-mouse/anti-rabbit HRP-conjugated secondary antibodies (Santa Cruz Biotechnology). GAPDH was used as a loading control. The signal was detected with the ECL Amersham kit from GE Healthcare (VWR, Carnaxide, Portugal). Two detection methods were used: the Kodak GBX developer and fixer (Sigma-Aldrich) or the ChemiDoc™ XRS Imaging System from Bio-Rad Laboratories (Amadora, Portugal).

[2] = system: breast cancer cell lines (MDA-MB-231, MDA-MB-468, MCF-7); assay: Sulforhodamine B assay, all breast cancer cell lines; type: cell-based; conditions: Homo sapiens; range over the four alkaloids and MDA-MB-231, MDA-MB-468, MCF-7; read-out: IC50 values against all breast cancer cell lines
Protocol: Aiming to find Amaryllidaceae alkaloids against breast cancer, including the highly aggressive triple-negative breast cancer, the phytochemical study of Pancratium maritimum was carried out. Several Amaryllidaceae-type alkaloids, bearing scaffolds of the haemanthamine-, homolycorine-, lycorine-, galanthamine-, and tazettine-type were isolated (3–11), along with one alkamide (2) and a phenolic compound (1). The antiproliferative effect of compounds (1–11) was evaluated by the sulforhodamine B assay against triple-negative breast cancer cell lines MDA-MB-231 and MDA-MB-468, breast cancer cells MCF-7, and the non-malignant fibroblast (HFF-1) and breast (MCF12A) cell lines. […] The homolycorine-type alkaloid 7 was selected for further investigation in MDA-MB-231 cells. In the annexin-V assay, compound 7 increased cell death by apoptosis, which was substantiated, in western blot analyses, by the increased expression of the pro-apoptotic protein Bax, and the decreased expression of the anti-apoptotic protein Bcl-xL. Consistently, it further stimulated mitochondrial reactive oxygen species (ROS) generation. The antiproliferative effect of compound 7 was also associated with G2/M cell cycle arrest, which was supported by an increase in the p21 protein expression levels.
as §1

COc1cc2c(cc1O)C(=O)OC1[C@@H](O)C=C3CCN(C)C3[C@]21O (stereo partly drawn) [Compound 7, 2α-10bα-dihydroxy-9-O-demethylhomolycorine] was tested, and the IC50 (MCF-7 cells; Homo sapiens, MCF7, 48 h, sulforhodamine B assay, 48 h of treatment, read-out: IC50 MCF-7 (C)) was 6.8 ± 0.2 µM, the “SI D/C” value (MCF-7 cells; selectivity index, MCF12A vs MCF-7) was 0.82 and the Bax protein levels ([1]; MDA-MB-231) was “increased levels”. For the same compound, the Bcl-xL protein levels ([1]; MDA-MB-231) was “reduced levels”, the p21 protein levels ([1]; MDA-MB-231) was “increased the p21 protein levels” and the “p53 protein expression levels” value ([1]; MDA-MB-231, data not shown) was “did not interfere”. For the same compound, the IC50 [2] was 0.73 to 16.3 µM.
